Assay results reported in patent publication US4442118A, “Aldose reductase inhibition by 1-(4-chlorobenzoyl)-5-methoxy-2-methyl-1H-indole-3-acetic acid” (Ayerst, McKenna & Harrison, Inc., priority 1981, dated 1984).

Biological target: lens aldose reductase (Bos taurus, UniProt P16116)
Assay: in vitro aldose reductase inhibition test (modified Hayman and Kinoshita procedure)
Assay type: biochemical, bovine
Protocol: In the present case the procedure of Hayman and Kinoshita is modified in that the final chromatography step is omitted in the preparation of the enzyme from bovine lens.
The following results were obtained when indomethacin was evaluated in the above in vitro test: […]

COc1ccc2c(c1)c(CC(=O)O)c(C)n2C(=O)c1ccc(Cl)cc1 [Indomethacin, 1-(4-Chlorobenzoyl)-5-methoxy-2-methyl-1H-indole-3-acetic acid]
inhibitor of lens aldose reductase (in words): potent inhibitor of lens aldose reductase
